Consider three molecules from patent US9925263B2, “Liquid pharmaceutical formulations for injection comprising procaine and uses thereof” (EAGLE BIOLOGICS, INC., priority 2013, dated 2018).

For data set [1], the system named is biosimilar AVASTIN®. In words: Viscosity of aqueous solutions of biosimilar AVASTIN® with viscosity-lowering agents. It counts as physicochemical. Particulars: for Viscosity: 200 ± 5 mg/mL mAb, pH 7.0, 25° C., C & P viscometer. How it is done: (§1) (unless otherwise indicated).
The protein was formulated to contain either 0.25 M phosphate buffer or 0.25 M CSAL.
Subsequently, the appropriate amount of viscosity-lowering agent was added to result in a final viscosity-lowering agent concentration of 0.15-0.35 M upon reconstitution.
The viscosity-lowering agent(s) were added in an amount sufficient to give concentration upon reconstitution as specified below. In cases of combinations of agents, the concentration of each component is 0.15 M. The protein solutions were then freeze-dried.

Data set [2] relates to REMICADE®. As to the kind of experiment: Viscosity of aqueous solutions of […]® with viscosity-lowering agents. It counts as physicochemical. Particulars: 0.25M agent, 25° C., pH 7.0. Here is the method: as §1
An extrapolated zero-shear viscosity was determined from a plot of absolute viscosity versus shear rate.
(§2) Following reconstitution, the viscosity of each solution was measured using the microfluidic viscometer as described in previous examples. The solutions were then back-loaded into 1 mL BD insulin syringes with 27, 29, or 31 gauge fixed needles. The force required to extrude the concentrated […]® solutions was then measured using an Instron at a rate of displacement equivalent to a fluid flow rate of 3 mL/min. The expelled solution was collected from the syringe and analyzed by size-exclusion chromatography.

Data set [3] relates to HERCEPTIN®. In words: Viscosity of aqueous solutions of HERCEPTIN® with viscosity-lowering agents. The format is physicochemical. Particulars: 0.25M salt, 25° C., pH 7.0.
Procedure: All viscosities of well-mixed aqueous mAb solutions were measured using either a mVROC microfluidic viscometer (RheoSense) or a DV2T cone and plate viscometer (Brookfield; “C & P”) after a 5 minute equilibration at 25° C. (unless otherwise indicated). The mVROC viscometer was equipped with an “A” or “B” chip, each manufactured with a 50 micron channel. Typically, 0.10 mL of protein solution was back-loaded into a gastight microlab instrument syringe (Hamilton; 100 μL), affixed to the chip, and measured at multiple flow rates, approximately 20%, 40%, and 60% of the maximum pressure for each chip. […] An average absolute viscosity and standard deviation was then calculated from at least these three measurements. The C & P viscometer was equipped with a CPE40 or CPE52 spindle (cone angle of 0.8° and 3.0°, respectively) and 0.50 mL samples were measured at multiple shear rates between 2 and 400 s^−1. Specifically, samples were measured for 30 seconds each at 22.58, 24.38, 26.25, 28.13, 30, 31.88, 45, 67.5, 90, 112.5, 135, 157.5, 180, 202.5, 247, 270, 292.5, 315, 337.5, 360, 382, 400 s^−1, starting at a shear rate that gave at least 10% torque, and continuing until instrument torque reached 100%. An extrapolated zero-shear viscosity was then determined from a plot of dynamic viscosity versus shear rate for the samples measured on a DV2T cone and plate viscometer. The extrapolated zero-shear viscosities reported are the average and standard deviation of at least three measurements.
(§3) Viscosities were measured using a RheoSense mVROC microfluidic viscometer equipped with an “A” or “B” chip.
Viscosities reported were measured on a RheoSense mVROC microfluidic viscometer.
The test system of data set [4] is TYSABRI®. In words: Viscosity of aqueous solutions of TYSABRI® with viscosity-lowering agents. It counts as physicochemical. Particulars: 0.25M agent, 25° C., pH 7.0.
Procedure: All viscosities of well-mixed aqueous mAb solutions were measured using either a mVROC microfluidic viscometer (RheoSense) or a DV2T cone and plate viscometer (Brookfield; “C & P”) after a 5 minute equilibration at 25° C. […] The mVROC viscometer was equipped with an “A” or “B” chip, each manufactured with a 50 micron channel. Typically, 0.10 mL of protein solution was back-loaded into a gastight microlab instrument syringe (Hamilton; 100 μL), affixed to the chip, and measured at multiple flow rates, approximately 20%, 40%, and 60% of the maximum pressure for each chip. […] An average absolute viscosity and standard deviation was then calculated from at least these three measurements. The C & P viscometer was equipped with a CPE40 or CPE52 spindle (cone angle of 0.8° and 3.0°, respectively) and 0.50 mL samples were measured at multiple shear rates between 2 and 400 s^−1. Specifically, samples were measured for 30 seconds each at 22.58, 24.38, 26.25, 28.13, 30, 31.88, 45, 67.5, 90, 112.5, 135, 157.5, 180, 202.5, 247, 270, 292.5, 315, 337.5, 360, 382, 400 s^−1, starting at a shear rate that gave at least 10% torque, and continuing until instrument torque reached 100%. An extrapolated zero-shear viscosity was then determined from a plot of dynamic viscosity versus shear rate for the samples measured on a DV2T cone and plate viscometer. The extrapolated zero-shear viscosities reported are the average and standard deviation of at least three measurements.
as §3
Subsequently, the aqueous drug product was purified, buffer exchanged, concentrated, dried, reconstituted, and analyzed as described in the same manner. Viscosities reported were measured on a RheoSense mVROC microfluidic viscometer.
For data set [5], the system named is VECTIBIX®. As to the kind of experiment: Viscosity of aqueous solutions of VECTIBIX® with viscosity-lowering agents. Particulars: 0.25M agent, 25° C., pH 7.0. It counts as physicochemical.
Source text: as §1

The subject of data set [6] is biosimilar ERBITUX®. In words: Viscosity of aqueous solutions of biosimilar ERBITUX® with viscosity-lowering agents. Particulars: 222 ± 5 mg/mL mAb, pH 7.0, 0.25M agent, 25° C.
Data set [7] deals with biosimilar RITUXAN®. As to the kind of experiment: Viscosity of aqueous solutions of biosimilar RITUXAN® with viscosity-lowering agents.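 Also: absolute viscosity of aqueous antibody solutions determined by microfluidic viscometry (mVROC chip, 50 micron channel) at several flow rates after 5 min equilibration, mean of at least three readings.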
Procedure: All viscosities of well-mixed aqueous mAb solutions were measured using either a mVROC microfluidic viscometer (RheoSense) or a DV2T cone and plate viscometer (Brookfield; “C & P”) after a 5 minute equilibration at 25° C. […] The mVROC viscometer was equipped with an “A” or “B” chip, each manufactured with a 50 micron channel. Typically, 0.10 mL of protein solution was back-loaded into a gastight microlab instrument syringe (Hamilton; 100 μL), affixed to the chip, and measured at multiple flow rates, approximately 20%, 40%, and 60% of the maximum pressure for each chip. […] An average absolute viscosity and standard deviation was then calculated from at least these three measurements. The C & P viscometer was equipped with a CPE40 or CPE52 spindle (cone angle of 0.8° and 3.0°, respectively) and 0.50 mL samples were measured at multiple shear rates between 2 and 400 s^−1. […] An extrapolated zero-shear viscosity was then determined from a plot of dynamic viscosity versus shear rate for the samples measured on a DV2T cone and plate viscometer. The extrapolated zero-shear viscosities reported are the average and standard deviation of at least three measurements.
as §3
Data set [8] concerns antigen. In words: Antigen binding, […]®-specific ELISA assay. Particulars: 227 mg/mL, pH 7, 0.25M CSAA, storage at 4° C. How it is done:
Biophysical properties of solutions of […]® formulated with 0.25 M CSAA were assessed over 90 days. Samples of […]® formulated with 0.25 M CSAA were prepared as described in Example 1 above. […] (Table 20). Additionally, antigen binding of this processed […]® protein was measured with a […]®-specific ELISA assay and no decrease in binding was seen between days 0 and […] (Table 20).
(ELISA stands for enzyme-linked immunosorbent assay.)

Data set [9] concerns REMICADE®. In words: Monomer content of […]® solutions by size exclusion chromatography. It counts as physicochemical. Particulars: lyophilized powder (cake containing CSAA) stored at 4° C.; reconstituted after 75 days. For orientation: SEC sorts molecules by how far they enter the pores of the column.
Data set [10] relates to ARZERRA®. In words: Viscosity of aqueous solutions of ARZERRA® with viscosity-lowering agents. It counts as physicochemical. Particulars: 0.25M agent, 25° C., pH 7.0.
Source text: as §1

For data set [11], the system named is REMICADE®. As to the kind of experiment: Monomer content of […]® solutions by size exclusion chromatography. Particulars: 0.25M agent. It counts as physicochemical. How it is done: Biophysical properties of solutions of […]® formulated with 0.25 M CSAA were assessed over 90 days. Samples of […]® formulated with 0.25 M CSAA were prepared as described in Example 1 above.
as §2

Data set [12] has as its system REMICADE®. In words: Syringe extrusion force of concentrated […]® solutions (Instron). The format is physicochemical. Particulars: 1 mL BD insulin syringe, 3 mL/min, REMICADE 224-230 mg/mL, 0.25M agent. Here is the method: as §2

For `Cl.N=C(N)NCCC[C@H](N)C(=O)O` [Arginine•HCl, arginine HCl, reference compound], the Viscosity was found to be 83.2 ± 2.8 cP in [1] ([Salt] 0.25 M of anion); 71.8 ± 2.2 cP in data set [1] ([Salt] 0.3 M of anion); 110 ± 1 cP in data set [2] (166 ± 4 mg/mL REMICADE); 486 ± 34 cP in data set [2] (222 ± 6 mg/mL REMICADE); 44.8 ± 1.1 cP in [3] (216 ± 0 mg/mL HERCEPTIN); 116 ± 24 cP in data set [3] (254 ± 3 mg/mL HERCEPTIN). In addition, the Viscosity in data set [3] (270 ± 6 mg/mL HERCEPTIN) was 179 ± 17 cP; in data set [4] (230 ± 2 mg/mL TYSABRI), 37.0 ± 0.1 cP; in data set [4] (237 ± 4 mg/mL TYSABRI), 52.3 ± 4.5 cP; in data set [4] (276 ± 8 mg/mL TYSABRI), 97.2 ± 5.7 cP; in data set [5] (233 ± 4 mg/mL VECTIBIX) it was 24.7 ± 1.3 cP; in [5] (252 ± 3 mg/mL VECTIBIX), 36.2 ± 1.0 cP. Further, the Viscosity in data set [6] turned out to be 45.3 ± 0.5 cP; in [7] (220 mg/mL RITUXAN (footnote *), 0.45M agent, 25° C., pH 7.0) it was 86.8 ± 1.8; in [7] (202 ± 2 mg/mL RITUXAN, 0.45M agent, 25° C., pH 7.0), 46.9 ± 0.8. In addition, in [6] (vs phosphate buffer), the “Fold Reduction” value is recorded as 24.9 fold.
“REMICADE ®: infliximab, mAb against TNF-α; here concentrated solution formulated with 0.25 M CSAA”: the figures for the “% binding (ELISA)” value in [8] (day 0), in [8] (day 30) and in [8] (day 100) were 105 ± 14%, 98 ± 12% and 101 ± 5%, respectively. In addition, the “% Monomer (SEC)” value in data set [9] came to 98.9 ± 0.1%.
As to “camphorsulfonic acid 1-(3-aminopropyl)-2-methyl-1H-imidazole [CSAAPMI]”, in data set [1] (~230 mg/mL mAb, vs PB, Table 12), the Viscosity reduction entry is “approximately 5 fold”. The Viscosity in [10] (245 ± 4 mg/mL ARZERRA) came out at 53.6 ± 0.6 cP; in [10] (274 ± 10 mg/mL ARZERRA) it was 98.9 ± 0.7 cP; in data set [7] (202 ± 2 mg/mL RITUXAN, 0.25M agent, 25° C., pH 7.0), 38.7 ± 0.7; in data set [7] (pH 7) it was 78.6 ± 2.0. Moreover, the “% Monomer” value in data set [11] (expelled through 27 gauge needle, REMICADE 224-230 mg/mL (per agent)) is listed as 99.1 ± 0.0%; in data set [11] (expelled through 29 gauge needle, REMICADE 224-230 mg/mL (per agent)), 99.0 ± 0.0%; in data set [11] (expelled through 31 gauge needle, REMICADE 224-230 mg/mL (per agent)), 99.0 ± 0.0%; in data set [11] (pre-syringe, REMICADE 220-230 mg/mL (per agent)) it was 99.2 ± 0.32%. Further, the “Syringe Force” value in [12] (27 gauge needle) is on record as 21.9 N; in data set [12] (29 gauge needle), 30.4 N; in data set [12] (31 gauge needle), 38.4 N.
